Structures can show the parent of a compound that is named as a salt. Where two headings read alike, the source gives them in different places.
Tests used:
[1] = tested on: spontaneously hypertensive rats; test: Activity against blood pressure (Test Example 1-1), tail-cuff measurement after oral administration; type: in vivo; conditions: Rattus norvegicus
Procedure: Male spontaneously hypertensive rats (20 to 30 weeks) were employed. After being heated in a heating box at 45 ° C for about 5 minutes, the rats were put in holders for measuring blood pressure, and blood pressure cuffs were set on the rats. After the rat's heart rate was stabilized, blood pressure of each rat was measured by a sphygmomanometer for rat (8002e, made by W + W Co., Ltd.) before the administration, and one hour, three hours and six hours after the administration. Each test compound dissolved in a 0.5 % solution of methyl cellulose was administered orally in a volume of 5 mℓ/kg.
Change of the blood pressure was calculated by the following formula.
(§1) Change rate (%) = [(Measured value after administration - Measured value before administration)/Measured value before administration] x 100

[2] = tested on: convulsion caused by pentylenetetrazole; test: Activity against convulsion caused by pentylenetetrazole (Test Example 6); type: in vivo, Slc: ddy male mice; conditions: summary of Table 4
Procedure: Slc: ddy male mice weighing 24 to 32 g (5 weeks) were bred under an environment of 22° to 24° C room temperature and 60 % humidity for 1 week, and then the bred mice were subjected to a test. The test was carried out as the following procedure. One hour after the oral administration of a test compound, 40 mg/kg of pentylenetetrazole was administered in a caudal vein. Appearance of tonic extensive convulsion was measured as an indication, and anticonvulsive activity was examined. Each test compound was suspended in a 0.5 % solution of methyl cellulose, which was used for a control group.

angiotensin II = test: Inhibitory activity against angiotensin II, constriction response of ileum preparations (Test Example 5); type: cell-based, Hartrey male guinea pigs
Procedure: From Hartrey male guinea pigs weighing about 500 g, ileum preparations were prepared. […] Thereinto 3 x 10^-8M of angiotensin II was added and constriction response of each preparation was measured through a isometoric transducer (made by Nihon Koden Kogyo Co., Ltd.). Before the addition of angiotensin II, a compound of the present invention or saralasin was previously added into a Magnus trough. Contractive responses in both cases were compared and Inhibition rate was calculated by the following formula.
Angiotensin II Inhibition rate = (1 - Tension in case of adding test compound/Tension of control) x 100

[3] = tested on: Spontaneous hypertensive male rats; test: Duration of blood pressure reduction activity (Test Example 1-2), direct aortic pressure without anesthesia; type: in vivo; conditions: oral, 3 mg/kg or 10 mg/kg, Figure 1
Procedure: Spontaneous hypertensive male rats (35 weeks) were employed. Before the day the test was carried out, rats were anesthetized with ether, and then, a polyethylene tube was inserted into an aorta abdominalis of the each rat. The other end of the polyethylene tube was led out of the rat's body, and the led polyethylene tube was connected with a pressure transducer. Blood pressure of each rat was measured by a polygraph (RM-85, made by Nihon Koden Kohgyo Co., Ltd.) without anesthesia before the administration, at intervals of one hour for eight hours after the administration and 24 hours after the administration.
Each test compound disolved in a 0.5 % solution of methyl cellulose was administered orally in a volume of 5 m í/kg and in a dose of 3 mg/kg or 10 mg/kg.
As is clear from Figure 1, blood pressure reduction activity of the compound No. 1 lasted for at least eight hours.

[4] = tested on: model of vasopressin myocardial ischemia; test: Activity against a model of vasopressin myocardial ischemia (ST wave depression, Test Example 3); type: in vivo, Donryu strain male rats; conditions: intravenous, five minutes before vasopressin 0.3 µg/kg, compared with nicardipine or nifedipine, Figure 3
Procedure: In accordance with a method of Hiramatu et al. (Japanese Journal Pharmacology 20,313 to 324,1970), Donryu strain male rats weighing 142 to 265 g were employed. Rats were anesthetized by intraperitoneally administering 60 mg/kg of pentobarbital sodium. After intravenous administration of 0.3 µg/kg of vasopressin, electrocardiogram (lead II) was recorded every one minute for five minutes. The maximum depression of ST wave in electrocardiogram was measured as an indication of myocardial ischemia. Five minutes before the administration of vasoperessin, each test compound dissolved in a mixted solution containing 20 % of propylen glycol and 5 % of glucose, was administered intravenously in a dose of 1 mt/kg.

[5] = tested on: left circumflex coronary artery and right vertebral artery blood flow; test: Activity against blood flow in anesthetized dogs (Test Example 4); type: in vivo, Beagle dogs; conditions: intravenous, compared with nicardipine or nimodipine, Figure 4
Procedure: Beagle dogs weighing 7 to 14 kg were employed, irrespective of sex. Dogs were anesthetized by intravenously administering 30 mg/kg of pentobarbital sodium (Nembutal). During the test […] of pentobarbital was injected continually into each dog. A endotracheal tube was inserted into each trachea. Incision was performed along the midline of the chest and a heart was exposed. Probes of a electromagnetic flowmeter (made by Nihon Koden Kohgyo Co., Ltd.) were set on a left circumflex coronary artery and a right vertebral artery. Each parameter was recorded simultaneously by polygragh (made by Nihon Koden Kogyo Co., Ltd.). […] Change of blood flow was calculated by the following Change rate.
as §1

[6] = Acute toxicity (Test Example 7); conditions: rat, in vivo; oral administration, death rate after 7 days; read-out: Rat LDso
Procedure: In each group 5 Slc: Wistar male rats weighing 100 g to 114 g (4 weeks) were employed. The compound No. 1 was administered orally thereto and with death rate after 7 days a value of acute toxicity was measured.
Rat LDso = 300 to 1000 mg/kg (oral administration)

[7] = tested on: atrioventricular conduction system; conditions: rat, in vivo, iv
[8] = 1 h, one hour after administration, read-out: Change rate of blood pressure 1 hr. value
[9] = 3 h, three hours after administration, read-out: Change rate of blood pressure 3 hr. value
[10] = 6 h, six hours after administration, read-out: Change rate of blood pressure 6 hr. value

Compound: C#Cc1cccc(C2C(C(=O)OCCN3CCN(C(c4ccccc4)c4ccccc4)CC3)=C(C)NC(N)=C2C(=O)OCC)c1 (stereo not shown) [compound 26, 4-(3-ethynylphenyl)-3-ethoxycarbonyl-2-amino-6-methyl-5-(N-diphenylmethylpiperazinylethoxycarbonyl)-1,4-dihydropyridine]
- change in vivo at 30 mg/kg [1, 8]: -38.8%
- change in vivo at 30 mg/kg [1, 9]: -43.8%
- change in vivo at 30 mg/kg [1, 10]: -41.5%

Compound: O=C1NC(=O)C(c2ccccc2)(c2ccccc2)N1 [Diphenylhidantoin, reference compound]
- anticonvulsive activity [2]: showing anticonvulsive activity

Compound: COCCOC(=O)C1=C(C)NC(C)=C(C(=O)OC(C)C)C1c1cccc([N+](=O)[O-])c1 (stereo not shown) [Nimodipine, isopropyl, 2-methoxyethyl 2,6-dimethyl-4-(3-nitrophenyl)-1,4-dihydropyridinedicarboxylate, reference compound]
- change in vivo at 10 mg/kg [1, 8]: -11%
- change in vivo at 10 mg/kg [1, 9]: -11%
- change in vivo at 10 mg/kg [1, 10]: -10.2%

Compound: C#Cc1cccc(C2C(C(=O)OC)=C(C)NC(C)=C2C(=O)OCCCN2CCN(c3ccccc3OC)CC2)c1 (stereo not shown) [compound 18, 4-(3-ethynylphenyl)-3-methoxycarbonyl-5-[3-(N-2-methoxyphenyl-piperazinyl)propoxycarbonyl]-2,6-dimethyl-1,4-dihydropyridine]
- change in vivo at 10 mg/kg [1, 8]: -5.3%
- change in vivo at 10 mg/kg [1, 9]: -12.4%
- change in vivo at 10 mg/kg [1, 10]: -14.3%

Compound: COC(=O)C1=C(C)NC(C)=C(C(=O)OCCN(C)Cc2ccccc2)C1c1cccc([N+](=O)[O-])c1 (stereo not shown) [Nicardipine, 2-(N-benzyl-N-methylamino)ethyl, methyl 2,6-dimethyl-4-(3-nitrophenyl)-1,4-dihydropyridinedicarboxylate hydrochloride, reference compound]
- change in vivo at 10 mg/kg [1, 8]: -35%
- change in vivo at 10 mg/kg [1, 9]: -3.5%
- change in vivo at 10 mg/kg [1, 10]: -2%

Compound: Saralasin [reference compound]
- Angiotensin II Inhibition rate (%) (angiotensin II; Concentration 10^-7 M, 3 x 10^-8M angiotensin II): 47.3%

Compound: C#Cc1cccc(C2C(C(=O)OC)=C(C)NC(C)=C2C(=O)OC(C)CN2CCN(C(c3ccccc3)c3ccccc3)CC2)c1 (stereo not shown) [compound 37, 4-(3-ethynylphenyl)-3-methoxycarbonyl-2,6-dimethyl-5-[2-(N-diphenyl-methylpiperazinyl)-1-methylethoxycarbonyl]-1,4-dihydropyridine]
- change in vivo at 30 mg/kg [1, 8]: -38.1%
- change in vivo at 30 mg/kg [1, 9]: -44.7%
- change in vivo at 30 mg/kg [1, 10]: -48.7%

Compound: C#Cc1cccc(C2C(C(=O)OC)=C(C)NC(C)=C2C(=O)OCCN2CCN(C(c3ccccc3)c3ccccc3)CC2)c1 (stereo not shown) [Compound No. 1, 4-(3-ethynylphenyl)-3-methoxycarbonyl-2,6-dimethyl-5-(N-diphenyl-methylpiperazinylethoxycarbonyl)-1,4-dihydropyridine]
- change in vivo at 10 mg/kg [1, 8]: -39%
- change in vivo at 10 mg/kg [1, 9]: -45.2%
- change in vivo at 10 mg/kg [1, 10]: -43.3%
- Duration of blood pressure reduction activity [3]: at least eight
- antimyocardial ischemia activity (maximum depression of ST wave) [4]: greater antimyocardial ischemia activity than that of nicardipine or nifedipine
- activity for increasing coronary blood flow [5]: greater activity
- activity for increasing vertebral blood flow [5]: greater activity
- inhibition at 1 µM (angiotensin II; Cavia porcellus, Concentration 10^-6 M, 3 x 10^-8M angiotensin II, read-out: Angiotensin II Inhibition rate (%)): 71.1%
- inhibition at 0.1 µM (angiotensin II; Cavia porcellus, Concentration 10^-7 M, 3 x 10^-8M angiotensin II, read-out: Angiotensin II Inhibition rate (%)): 56.2%
- inhibition at 0.01 µM (angiotensin II; Cavia porcellus, Concentration 10^-8 M, 3 x 10^-8M angiotensin II, read-out: Angiotensin II Inhibition rate (%)): 6.5%
- Inhibitory activity against angiotension II (angiotensin II; compared with saralasin, positive control drug): the same extent of Inhibitory activity against angiotension II as that of saralasin
- anticonvulsive activity [2]: did not show the activity
- LD50 at 168 h [6]: 300 to 1000 mg/kg
- influence on artrioventricular conduction system (change rate of PQ interval) [7]: less influence on artrioventricular conduction system as compared with nicardipine

Compound: C#Cc1cccc(C2C(C(=O)OC)=C(C)NC(C)=C2C(=O)OCCN2CCN(C(c3ccc(F)cc3)c3ccc(F)cc3)CC2)c1 (stereo not shown) [compound 4, 4-(3-ethynylphenyl)-3-methoxycarbonyl-2,6-dimethyl-5-(N-di-4-fluorophenylmethylpiperazinylethoxycarbonyl)-1,4-dihydropyridine]
- change in vivo at 10 mg/kg [1, 8]: -41.2%
- change in vivo at 10 mg/kg [1, 9]: -40.9%
- change in vivo at 10 mg/kg [1, 10]: -35.7%

Compound: C#Cc1cccc(C2C(C(=O)OC)=C(C)NC(C)=C2C(=O)OCCN2CCN(C(c3ccc(C)cc3)c3ccc(C)cc3)CC2)c1 (stereo not shown) [compound 5, 4-(3-ethynylphenyl)-3-methoxycarbonyl-2,6-dimethyl-5-(N-di-4-methyl-phenylmethylpiperazinylethoxycarbonyl)-1,4-dihydropyridine]
- change in vivo at 10 mg/kg [1, 8]: -41.5%
- change in vivo at 10 mg/kg [1, 9]: -41.5%
- change in vivo at 10 mg/kg [1, 10]: -29.2%

Compound: C#Cc1cccc(F)c1C1C(C(=O)OC)=C(C)NC(C)=C1C(=O)OCCN1CCN(C(c2ccccc2)c2ccccc2)CC1 (stereo not shown) [compound 2, 4-(2-ethynyl-6-fluorophenyl)-3-methoxycarbonyl-2,6-dimethyl-5-(N-diphenylmethylpiperazinylethoxycarbonyl)-1,4-dihydropyridine]
- change in vivo at 30 mg/kg [1, 8]: -25%
- change in vivo at 30 mg/kg [1, 9]: -22.5%
- change in vivo at 30 mg/kg [1, 10]: -10%

Source: patent EP0461264A1, “ETHYNYLPHENYL DERIVATIVE, PRODUCTION THEREOF, AND REMEDY FOR DISEASES OF CIRCULATORY ORGANS CONTAINING THE SAME AS ACTIVE INGREDIENT” (KAKEN PHARMACEUTICAL CO., LTD., priority 1989, dated 1991)
